Earlier results in patent US20190100806A1, “MARKER FOR PREDICTING TREATMENT RESPONSE TO ANTI-CANCER AGENT IN SOLID CANCER PATIENTS” (DAEWOONG PHARMACEUTICAL CO., LTD., priority 2016, published 2019).

Assays:
[1] = tested on: PC-3 (human prostate cancer) cells; conditions: PC-3 cells, PTEN-deficient; read-out: median effective concentration (EC50)
[2] = tested on: RAC serine/threonine-protein kinase (Akt) phosphorylation; conditions: mouse models xenografted with human PTEN-deficient tumor cells
[3] = tested on: HCC70 (human breast ductal carcinoma) cells; conditions: PTEN-deficient, read-out: median effective concentration (EC50)
[4] = tested on: Akt phosphorylation (Ser473); conditions: single dose, mouse model xenografted with PC-3 cells

SMILES: Cc1c(Cn2c(C)nc3c(C(=O)O)cc(N4CCOCC4)cc32)cccc1C(F)(F)F [GSK-2636771]
- EC50 [1]: 36 nM
- phosphorylation of Akt [2]: inhibits the phosphorylation of RAC serine/threonine-protein kinase (Akt) in a dose-dependent manner
- EC50 [3]: 72 nM
- Akt phosphorylation (Ser473) [4]: reduce Akt phosphorylation (Ser473)
